The text below walks through data of patent publication EP2388023A1, “Composites on a basis of bioceramics and biodegradable or non biodegradable polymers, containing antibiotics for tissue restitution and products therefrom” (Universidade Federal de Minas Gerais, priority 2006, dated 2007).

This series relates to dentine-pulp complex of rats. The protocol: The objective of this study was to check the inflammatory response of the pulp tissue and dentine tissue formation in rats after the use of composites made from hydroxiapatite as compared to the use of […] (CETEA 143/04). The composites were prepared and sterilized with ethylene oxide, following the procedures described previously. 36 six-week-old rats (Rattus norvergicus) of the Wistar lineage, weighing between 250 and 300g were used in this investigation.
The animals were placed in […] groups: (1) Calcium hydroxide; (2) Bioceramics HA and PLGA; (3) Negative control within four periods of time (1, 7. 15 and 30 days). The animals received an intraperitoneal anesthetic injection of 10 ml Ketamine 10% and 7.5 ml Xilazine 10% (body weight: 0.1ml/100g).
A cavity in the first upper molar oclussal face of the animals was made using a spherical drill n. 1/4 (ISO Maillefer), in total isolation, with water refrigeration and low rotation, keeping the animal in adequate equipment. No additional retention was supplied for the preparation of the cavity. Cavities and exposures were carefully cleaned with cotton balls and distilled water during four minutes. After being sacrificed, the animals underwent the histological processing of their teeth performed with the use of hematoxilin-eosin followed by a qualitative and quantitative histological analysis. The data was subjected to a ANOVA Test statistical analysis. The dentine bridge was measured with a 60-micrometer reticle.

The structures appear in SMILES notation. Like-named read-outs stand apart in the source and are kept apart here.

Regarding `[Ca+2].[OH-].[OH-]` [group (1), Calcium hydroxide], the “inflammatory response of the pulp tissue” value is “necrosed areas and a mild acute inflammatory process” (after seven days); “mild chronic infiltrate” (from the fourteenth day on). Moreover, under “onset, periods 1, 7, 15 and 30 days”, the “formation of hard tissue” value was “around the thirtieth day”.
